Legend:
T241 fibrosarcoma cells [1] = assay: fibrosarcoma tumour growth in mice (HRGP); format: in vivo; details: fibrosarcoma-bearing mice, summary of experiment 4
Protocol: Animal work was carried out at the local animal facility and was approved by the Uppsala University board of animal experimentation and thus performed according to the UKCCCR guidelines for the welfare of animals in experimental neoplasia (Workman et al (1988)). The mice were anesthetized with isoflurane (Forene; Abbott) during all manipulations. Female, 5 week old, C57BL6/1 mice (Mollegard/Bomhultgard, Denmark) were injected with 0.5×10^6 T241 fibrosarcoma cells subcutaneously (s.c.) into the left flank. Animals carrying palpable tumours were randomized (n=7-10 animals/treatment group) and received treatment with vehicle (PBS), 4 mg/kg/day of pHRGP or 5 mg/kg/day of human IgG or His-HRGP, given as daily subcutaneous injections in the right flank. The tumours were measured with a caliper once a day, in a blind procedure, and volumes were calculated by the formula […]. When the tumours reached the upper limit of 2 cm^3, the mice were sacrificed. Three animals in each group were perfused with 4% paraformaldehyde in PBS pH 7.4. Tumours were embedded in paraffin according to standard histological procedures and sectioned at […] thickness.
C57/bl6 mice were inoculated subcutaneously with T241 fibrosarcoma cells on their left flank and when the tumours were palpable (after 4-6 days), a daily treatment was initiated with HRGP or control (PBS; FIG. 2A, or human IgG; FIG. 2B). Endostatin was included in one study for comparison (FIG. 2B). The treatment was given as subcutaneous injections in the right flank until the size of the control tumours reached the upper limit of […] (11 days; FIG. 2A, 14 days; FIG. 2B). Injections with both pHRGP (4 mg/kg/day) and His-HRGP (5 mg/kg/day) led to a drastic reduction in tumour growth and at the time of sacrifice, the size of the tumours was reduced by 67% (FIG. 2A) and 61% (FIG. 2B) respectively, compared to control-treated animals. Endostatin treatment (25 mg/kg/day) lacked significant inhibitory effect on tumour growth in this model (32% decrease).

T241 fibrosarcoma cells [2] = assay: TUNEL and Ki67 staining of tumour sections; format: in vivo, mice
Protocol: Paraffin-sections of tumours from control- or HRGP-treated animals were immunohistochemically (IHC) stained for CD31 and Ki67 using a goat anti-mouse CD31 antibody (1506; Santa Cruz), diluted 1:500 and incubated at +4° C. over night, and a rat anti-mouse Ki67 antibody (TEC-3/M7249; DAKO) diluted 1:50 and incubated for 30 min. at room temperature, according to standard IHC procedures. Detection of apoptotic cells by the TUNEL-technique was performed using ApopTag™ (Intergen Company) according to the manufacturer's protocol. Stereological quantification of vascular parameters was performed as described earlier by Weibel et al (1979) and Gundersen et al (1988). Quantification of the relative number of Tunel- and Ki67-positive cells was calculated from approximately 3000 cells per tumour section, in three tumours from each treatment group. Significance at the level of P<0.05 was calculated using Students t-test.

primary BCE cells [3] = assay: chemotaxis (migration) assay in modified Boyden chamber, BCE cells; format: cell-based, bovine
Protocol: The porcine aortic endothelial (PAE) cell line overexpressing FGF receptor-1 (FGFR-1) (Wennström et al 1992) was cultured in Ham's F12/10% fetal bovine serum (FCS) and NIH 3T3 murine fibroblasts were cultured in Dulbecco's modified medium (DMEM)/10% newborn calf serum (NCS). F12, DMEM and serum were bought from Life Technologies. Primary bovine adrenal cortex capillary endothelial (BCE) cells were cultured on gelatin-coated dishes in DMEM/10% NCS and 2 ng/ml FGF-2 (Boehringer Mannheim). For chemotaxis assays, both PAE and NIH 3T3 cells were serum-starved over night in 0.1% BSA and BCE cells in 0.5% NCS. Human embryonic kidney (HEK) 293-EBNA cells were cultured in DMEM/10% FCS. Approximately every second month they were given 0.25 mg/ml G418 (Calbiochem) to ensure positive selection of the EBNA-1 expressing cells.
A migration assay was performed in a modified Boyden chamber as described earlier (Auerbach et al., 1991) using micropore polycarbonate filters (8 μm thick, 8 μm pore) coated with type-1 collagen solution at 100 μg/ml (Vitrogen 100, Collagen Corp). BCE, PAE/FGFR-1 or NIH 3T3 cells were preincubated or not with HRGP (100 ng/ml) for 30 min, trypsinised and resuspended at a concentration of 7.5×10^5 cells/ml in Dulbecco's modified essential medium (Invitrogen) containing 0.25% BSA and Trasylol at 1000 KIE. FGF-2 and VEGF-A was used at 5 ng/ml, HRGP and the protein C inhibitor (PCI) at 100 ng/ml and BSA at 0.25%. After 5 h at 37° C., migrated cells were stained with Giemsa and counted using an image analysis software (Easy Image Analysis) from Tekno Optik AB, Sweden. All samples were analysed in at least six parallel wells for each treatment.

primary BCE cells [4] = assay: comparative study pep2/pep3, chemotaxis; format: cell-based, bovine; details: 100 ng/ml, FGF-2 10 ng/ml
Protocol: Primary endothelial cells were starved over night in 0.5% normal calf serum. A migration assay was performed in a modified Boyden chamber as described earlier (Auerbach et al., 1991) using micropore polycarbonate filters (8 μm thick, 8 μm pore) coated with type-1 collagen solution at 100 μg/ml (Vitrogen 100, Collagen Corp). Cells were trypsinized and resuspended at 7.5×10^5 cells/ml in Dulbecco's modified essential medium (Invitrogen) containing 0.25% BSA and Trasylol at 1000 KIE. The cell suspension was added in the upper chamber and FGF-2 (10 ng/ml), HRGP (100 ng/ml), peptide 2 or 3 (50 ng/ml) in medium containing 0.25% BSA were added to the lower chamber. The peptides were dissolved in PBS containing a 10-fold molar excess (Zn:peptide) of Zn^2+-acetate. After 5 h at 37° C., cells that had migrated through the filter were stained with Giemsa and counted using the Easy Image Analysis software. All samples were analyzed in at least six wells for each treatment. Results of the study are illustrated in FIG. 7.

## HRGP: mature human Histidine Rich Glycoprotein, about 507 amino acid residues
T241 fibrosarcoma cells [1]
  reduction in tumour volume compared to control-treated mice: more than 60%
T241 fibrosarcoma cells [2]; TUNEL staining, HRGP vs IgG control
  tumour apoptosis compared to control group: No difference in tumour apoptosis
T241 fibrosarcoma cells [2]; tumours from HRGP-treated mice
  percentage of apoptotic (TUNEL-positive) cells in the tumours: less than 1%
T241 fibrosarcoma cells [2]; tumours from HRGP-treated mice, control 43%
  proportion of proliferating (Ki67-positive) cells in tumours: 29%
Primary BCE cells [3]; 100 ng/ml HRGP
  FCS-induced chemotaxis of BCE cells: not inhibited
Primary BCE cells [3]; 100 ng/ml HRGP, VEGF-A 5 ng/ml
  VEGF-A-induced chemotaxis of BCE cells: inhibited
Primary BCE cells [3]; 100 ng/ml protein, FGF-2 5 ng/ml, 5 h
  FGF-2-induced chemotaxis of BCE cells: completely arrested
Primary BCE cells [4]
  FGF-2-induced chemotaxis of primary BCE cells: inhibited

— patent publication US7662388B2, “Endogenous peptide and active subfragments thereof” (Innoventus Project AB, priority 2003, dated 2010)
